This is an account of results in patent publication US20130217664A1, “NOVEL COMPOUNDS USEFUL FOR THE TREATMENT OF DEGENERATIVE AND INFLAMMATORY DISEASES” (priority 2012, published 2013).

Where only a bound is given, the exact number is not on record here.

As a reminder, the IC50 is the midpoint of a concentration-inhibition curve.

What all share (type): biochemical
One test has as its target T1, human JAK2 (Homo sapiens, UniProt O60674).
T1 construct: catalytic domain (amino acids 808-1132; catalog number PV4210); GST; purchased Invitrogen PV4210
Put plainly: JAK2 inhibition assay (polyGT substrate / Ulight-JAK1 peptide). To be noted: recombinant human JAK2 catalytic domain; polyGT or Ulight-JAK1 peptide assay. The method in brief:
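Two JAK2 formats: a ^33P-ATP polyGT assay (1 μM cold ATP, 90 min, 30° C., cpm read-out) and a Ulight-JAK1 peptide assay read by Europium-anti-phosphotyrosine fluorescence after 60 min at room temperature.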

For a further test, the target named is T2, human TYK2 (Homo sapiens, UniProt P29597).
T2 construct: catalytic domain (amino acids 871-1187; catalog number 08-147); purchased Carna Biosciences 08-147
T2 sequence (P29597 871-1187): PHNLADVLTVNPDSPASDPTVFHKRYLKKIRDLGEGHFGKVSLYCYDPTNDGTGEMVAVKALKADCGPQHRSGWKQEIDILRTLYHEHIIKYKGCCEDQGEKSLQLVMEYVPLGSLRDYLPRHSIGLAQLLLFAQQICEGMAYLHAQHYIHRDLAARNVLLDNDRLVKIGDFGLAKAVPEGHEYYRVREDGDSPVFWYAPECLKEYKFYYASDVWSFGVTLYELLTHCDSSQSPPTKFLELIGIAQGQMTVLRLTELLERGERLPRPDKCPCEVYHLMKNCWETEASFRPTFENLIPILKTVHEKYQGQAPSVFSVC
Put plainly: TYK2 inhibition assay. The note with it: recombinant human TYK2 catalytic domain, polyGT substrate. On the procedure:
1.4 TYK2 Inhibition Assay
After 90 min at 30° C., reactions were stopped by adding 25 μL/well of 150 mM phosphoric acid. […] Plates were washed 6 times with 300 μL per well of a 75 mM phosphoric acid solution and the bottom of the plates was sealed. 40 μL/well of Microscint-20 was added, the top of the plates was sealed and readout was performed using the Topcount (Perkin Elmer). Kinase activity was calculated by subtracting counts per min (cpm) obtained in the presence of a positive control inhibitor (10 μM staurosporine) from cpm obtained in the presence of vehicle. The ability of a test compound to inhibit this activity was determined as:
(§1) Percentage inhibition=((cpm determined for sample with test compound present−cpm determined for sample with positive control inhibitor)divided by(cpm determined in the presence of vehicle−cpm determined for sample with positive control inhibitor))*100.
Dose dilution series were prepared for the compounds enabling the testing of dose-response effects in the TYK2 assay and the calculation of the IC50 for each compound.

A further test concerns the target T3, human JAK3 (Homo sapiens, UniProt P52333).
T3 construct: catalytic domain (amino acids 781-1124; catalog number PV3855); purchased Invitrogen PV3855
Put plainly: JAK3 inhibition assay. The note with it: recombinant human JAK3 catalytic domain; polyGT substrate. On the procedure: 1.3 JAK3 Inhibition Assay
0.5 ng JAK3 protein was incubated with 2.5 μg polyGT substrate (Sigma catalog number P0275) in kinase reaction buffer (25 mM Tris pH 7.5, 0.5 mM EGTA, 10 mM MgCl2, 2.5 mM DTT, 0.5 mM Na3VO4, 5 mM b-glycerolphosphate, 0.01% Triton X-100, 1 μM non-radioactive ATP, 0.25 μCi 33P-gamma-ATP (GE Healthcare, catalog number AH9968) final concentrations) with or without 5 μL containing test compound or vehicle (DMSO, 1% final concentration), in a total volume of 25 μL, in a polypropylene 96-well plate (Greiner, V-bottom). After 45 min at 30° C., reactions were stopped by adding 25 μL/well of 150 mM phosphoric acid. […] Plates were washed 6 times with 300 μL per well of a 75 mM phosphoric acid solution and the bottom of the plates was sealed. 40 μL/well of Microscint-20 was added, the top of the plates was sealed and readout was performed using the Topcount (Perkin Elmer). Kinase activity was calculated by subtracting counts per min (cpm) obtained in the presence of a positive control inhibitor (10 μM staurosporine) from cpm obtained in the presence of vehicle. The ability of a test compound to inhibit this activity was determined as:
as §1
Dose dilution series were prepared for the compounds enabling the testing of dose-response effects in the JAK3 assay and the calculation of the IC50 for each compound. Each compound was routinely tested at concentration of 20 μM followed by a 1/5 serial dilution, 10 points in a final concentration of 1% DMSO.

In a further test the target is T4, human JAK1 (Homo sapiens, UniProt P23458).
T4 construct: catalytic domain, amino acids 866-1154; catalog number PV4774; purchased Invitrogen PV4774
In words: JAK1 inhibition assay (polyGT substrate / Ulight-JAK1 peptide). To be noted: recombinant human JAK1 catalytic domain; polyGT or Ulight-JAK1 peptide assay. The method in brief:
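Signal scaled between vehicle and 10 μM staurosporine. Radiometric polyGT reactions ran 45 min at 30 °C, counted after phosphoric-acid stop. Ulight peptide reactions ran 60 min at room temperature, fluorescence read after adding Eu-PT66 detection mix with EDTA.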

T4 sequence (P23458 866-1154): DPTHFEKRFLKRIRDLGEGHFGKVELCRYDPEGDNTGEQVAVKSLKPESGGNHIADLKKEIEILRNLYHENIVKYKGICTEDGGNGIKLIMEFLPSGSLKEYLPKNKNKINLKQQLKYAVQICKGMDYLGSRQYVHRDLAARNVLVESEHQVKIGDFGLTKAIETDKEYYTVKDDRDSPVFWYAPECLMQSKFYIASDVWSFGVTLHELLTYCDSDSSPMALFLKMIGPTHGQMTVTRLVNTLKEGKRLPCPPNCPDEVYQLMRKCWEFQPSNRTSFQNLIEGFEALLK
T3 sequence (P52333 781-1124): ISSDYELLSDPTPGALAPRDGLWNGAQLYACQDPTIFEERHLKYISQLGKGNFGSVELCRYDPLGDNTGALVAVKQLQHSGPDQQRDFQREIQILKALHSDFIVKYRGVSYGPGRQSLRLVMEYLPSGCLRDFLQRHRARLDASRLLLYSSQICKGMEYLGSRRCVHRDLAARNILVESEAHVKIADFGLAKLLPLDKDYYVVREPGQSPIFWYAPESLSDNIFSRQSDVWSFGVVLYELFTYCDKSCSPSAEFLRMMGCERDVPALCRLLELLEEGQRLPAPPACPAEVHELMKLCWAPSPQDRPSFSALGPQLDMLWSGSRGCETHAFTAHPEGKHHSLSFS
T1 sequence (O60674 808-1132): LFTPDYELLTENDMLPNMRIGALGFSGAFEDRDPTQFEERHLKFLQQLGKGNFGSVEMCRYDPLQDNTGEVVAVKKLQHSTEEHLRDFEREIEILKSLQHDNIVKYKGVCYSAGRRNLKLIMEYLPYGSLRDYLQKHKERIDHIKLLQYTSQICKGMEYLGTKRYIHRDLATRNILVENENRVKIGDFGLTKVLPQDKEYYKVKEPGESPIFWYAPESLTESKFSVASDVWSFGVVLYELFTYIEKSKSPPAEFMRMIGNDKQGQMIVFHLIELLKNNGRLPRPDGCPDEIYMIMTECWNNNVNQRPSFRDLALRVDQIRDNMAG

`CN(c1cc2c(cn1)ncn2C)c1ccccc1Cl` [Compound 68, N-(2-Chlorophenyl)-N,1-dimethyl-1H-imidazo[4,5-c]pyridin-6-amine]: the half-inhibitory concentration (IC50) at human JAK2 is over 1000 nM; on human TYK2, 501 to 1000 nM; on human JAK3, over 1000 nM; at human JAK1 it was 101 to 500 nM.
Turning to `Cc1cc(OCc2ccc(C#N)nc2)ccc1N(C)c1cc2c(cn1)ncn2C` [Compound 89, 5-((3-methyl-4-(methyl(1-methyl-1H-imidazo[4,5-c]pyridin-6-yl)amino)phenoxy)methyl) picolinonitrile], the 50% inhibitory concentration (IC50) at human JAK2 was over 1000 nM; at human TYK2, over 1000 nM; on human JAK3, over 1000 nM; at human JAK1 it was 101 to 500 nM.
As for `Cc1ccc(OCc2ccc(C#N)nc2)cc1N(C)c1cc2c(cn1)ncn2C` [Compound 92, 5-((4-methyl-3-(methyl(1-methyl-1H-imidazo[4,5-c]pyridin-6-yl)amino)phenoxy)methyl) picolinonitrile], the IC50 at human JAK2 is over 1000 nM; at human TYK2, over 1000 nM; at human JAK3, over 1000 nM; on human JAK1, 0.01 to 100 nM.
Regarding `CCc1cc(OCC(N)=O)ccc1N(C)c1cc2c(cn1)ncn2C` [Compound 299], the concentration for half-maximal inhibition (IC50) on human JAK2 was 101 to 500 nM; at human TYK2 it was 101 to 500 nM; at human JAK3, over 1000 nM; on human JAK1 it was 0.01 to 100 nM.
Regarding `CCc1cc(CNC2CCS(=O)(=O)C2)ccc1N(C)c1cc2c(cn1)ncn2C` (centres unmarked) [Compound 300, {4-[(1,1-Dioxo-tetrahydro-thiophen-3-ylamino)-methyl]-2-ethyl-phenyl}-methyl-(1-methyl-1H-imidazo[4,5-c]pyridin-6-yl)-amine], the half-inhibitory concentration (IC50) at human JAK2 was 101 to 500 nM; on human TYK2 it was 501 to 1000 nM; at human JAK3 it was over 1000 nM; at human JAK1 it was 0.01 to 100 nM.
The corresponding values for `CCc1cc(-c2ccc(C#N)s2)ncc1N(C)c1cc2c(cn1)ncn2C` [Compound 301, 5-{4-Ethyl-5-[methyl-(1-methyl-1H-imidazo[4,5-c]pyridin-6-yl)-amino]-pyridin-2-yl}-thiophene-2-carbonitrile] are 0.01 to 100 nM, 0.01 to 100 nM, 0.01 to 100 nM and 0.01 to 100 nM.
With `CCn1nc(C)cc1N(C)c1cc2c(cn1)ncn2C` [Compound 305, (2-Ethyl-5-methyl-2H-pyrazol-3-yl)-methyl-(1-methyl-1H-imidazo[4,5-c]pyridin-6-yl)-amine], the concentration for half-maximal inhibition (IC50) on human JAK2, on human TYK2, on human JAK3 and on human JAK1 was over 1000 nM throughout.
Take `CN(c1cc2c(cn1)ncn2C)c1cc(C2CC2)nn1C` [Compound 306, (5-Cyclopropyl-2-methyl-2H-pyrazol-3-yl)-methyl-(1-methyl-1H-imidazo[4,5-c]pyridin-6-yl)-amine]: the IC50 at human JAK2, on human TYK2, on human JAK3 and at human JAK1 was over 1000 nM throughout.
Consider `CCc1cn(C2(CC#N)CN(C(=O)OC(C)(C)C)C2)nc1N(C)c1cc2c(cn1)ncn2C` [Compound 308, 3-Cyanomethyl-3-{4-ethyl-3-[methyl-(1-methyl-1H-imidazo[4,5-c]pyridin-6-yl)-amino]-pyrazol-1-yl}-azetidine-1-carboxylic acid tert-butyl ester], for which the IC50 on human JAK2, at human TYK2, on human JAK3 and at human JAK1 was over 1000 nM each time.
As for `CCc1cn(C2(CC#N)CNC2)nc1N(C)c1cc2c(cn1)ncn2C` [Compound 309, (3-{4-Ethyl-3-[methyl-(1-methyl-1H-imidazo[4,5-c]pyridin-6-yl)-amino]-pyrazol-1-yl}-azetidin-3-yl)-acetonitrile], the 50% inhibitory concentration (IC50) on human JAK2, at human TYK2, at human JAK3 and on human JAK1 was over 1000 nM in each case.
With `CCc1cn(C2(CC#N)CN(S(C)(=O)=O)C2)nc1N(C)c1cc2c(cn1)ncn2C` [Compound 310, (3-{4-Ethyl-3-[methyl-(1-methyl-1H-imidazo[4,5-c]pyridin-6-yl)-mino]-pyrazol-1-yl}-1-methanesulfonyl-azetidin-3-yl)-acetonitrile], the concentration for half-maximal inhibition (IC50) on human JAK2, at human TYK2, at human JAK3 and on human JAK1 was over 1000 nM each time.
For `CCc1cc(CN(C)S(C)(=O)=O)ncc1N(C)c1cc2c(cn1)ncn2C` [Compound 317, N-{4-Ethyl-5-[methyl-(1-methyl-1H-imidazo[4,5-c]pyridin-6-yl)-amino]-pyridin-2-ylmethyl}-N-methyl-methane sulfonamide], the IC50 on human JAK2 was in the range of 101 to 500 nM; at human TYK2, 0.01 to 100 nM; at human JAK3, 0.01 to 100 nM; at human JAK1, 0.01 to 100 nM.
Consider `CCc1cc(N2CCCC2=O)ncc1N(C)c1cc2c(cn1)ncn2C` [Compound 318, 1-{4-Ethyl-5-[methyl-(1-methyl-1H-imidazo[4,5-c]pyridin-6-yl)-amino]-pyridin-2-yl}-pyrrolidin-2-one], for which the half-inhibitory concentration (IC50) at human JAK2 was 501 to 1000 nM; on human TYK2 it was over 1000 nM; on human JAK3 it was over 1000 nM; at human JAK1, 101 to 500 nM.
For `CCc1cc(C#N)c(C(F)(F)F)cc1N(C)c1cc2c(cn1)ncn2C` [Compound 321, 5-Ethyl-4-[methyl-(1-methyl-1H-imidazo[4,5-c]pyridin-6-yl)-amino]-2-trifluoromethyl-benzonitrile], the IC50 at human JAK2, at human TYK2, on human JAK3 and at human JAK1 was over 1000 nM each time.
For `CCc1cc(C2CN(C(=O)CC#N)C2)ncc1N(C)c1cc2c(cn1)ncn2C` [Compound 335, 3-(3-{4-Ethyl-5-[methyl-(1-methyl-1H-imidazo[4,5-c]pyridin-6-yl)-amino]-pyridin-2-yl}-azetidin-1-yl)-3-oxo-propionitrile], the 50% inhibitory concentration (IC50) on human JAK2 was 501 to 1000 nM; at human TYK2, over 1000 nM; on human JAK3, over 1000 nM; at human JAK1 it was 0.01 to 100 nM.
Consider `CCC(=O)N1CC(c2cc(CC)c(N(C)c3cc4c(cn3)ncn4C)cn2)C1` [Compound 336, 1-(3-{4-Ethyl-5-[methyl-(1-methyl-1H-imidazo[4,5-c]pyridin-6-yl)-amino]-pyridin-2-yl}-azetidin-1-yl)-propan-1-one], for which the IC50 at human JAK2 is over 1000 nM; on human TYK2, over 1000 nM; at human JAK3, over 1000 nM; on human JAK1 it was 0.01 to 100 nM.
On to `CCc1cc(C2CN(C(=O)CCC(F)(F)F)C2)ncc1N(C)c1cc2c(cn1)ncn2C` [Compound 338, 1-(3-{4-Ethyl-5-[methyl-(1-methyl-1H-imidazo[4,5-c]pyridin-6-yl)-amino]-pyridin-2-yl}-azetidin-1-yl)-4,4,4-trifluoro-butan-1-one], for which the half-maximal inhibitory concentration (IC50) at human JAK2 was over 1000 nM; at human TYK2 it was over 1000 nM; on human JAK3, over 1000 nM; at human JAK1 it was 501 to 1000 nM.
